Our source for the IC50 values is ChEMBL document CHEMBL1144231, “Discovery of pyrimidine benzimidazoles as Lck inhibitors: part I” (Bioorg Med Chem Lett, 2008).

For the test, the target named is Tyrosine-protein kinase Lck (Homo sapiens, UniProt P06239). Kind of test: Inhibition of Lck by lance assay.
Tyrosine-protein kinase Lck, sequence (P06239 whole entry): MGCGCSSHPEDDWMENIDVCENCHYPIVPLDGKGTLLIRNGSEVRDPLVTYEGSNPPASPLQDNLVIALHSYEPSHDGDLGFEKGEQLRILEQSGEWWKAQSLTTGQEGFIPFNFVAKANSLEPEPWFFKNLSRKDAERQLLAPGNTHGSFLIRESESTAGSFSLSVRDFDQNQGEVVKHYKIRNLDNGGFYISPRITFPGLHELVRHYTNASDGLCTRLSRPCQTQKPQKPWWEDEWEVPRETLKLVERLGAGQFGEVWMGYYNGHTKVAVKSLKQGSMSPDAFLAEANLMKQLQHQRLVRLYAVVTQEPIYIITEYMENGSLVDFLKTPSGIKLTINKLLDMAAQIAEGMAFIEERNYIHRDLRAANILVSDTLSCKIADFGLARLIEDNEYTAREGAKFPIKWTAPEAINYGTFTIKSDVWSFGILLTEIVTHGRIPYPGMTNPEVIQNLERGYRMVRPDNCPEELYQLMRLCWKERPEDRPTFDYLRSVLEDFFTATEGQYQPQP
The IC50 is the concentration that gives 50% inhibition. In turn, `Cc1nc(Nc2cc(-n3c(Nc4c(C)cccc4Cl)nc4ccccc43)ncn2)cc(N2CCN(CCO)CC2)n1` came in with an IC50 of 25 nM.

For the molecule `Cc1cccc(Cl)c1Nc1nc2ccccc2n1-c1cc(Nc2ncnc(NCCN3CCOCC3)c2C)ncn1`, 119 nM corresponded to half-maximal inhibition (IC50).

In the case of `Cc1nc(NCCN2CCOCC2)cc(Nc2cc(-n3c(Nc4c(C)cccc4Cl)nc4ccccc43)ncn2)n1`, 5 nM corresponded to half-maximal inhibition (IC50).

Take `Cc1cccc(Cl)c1Nc1nc2ccccc2n1-c1cc(Nc2ccc(CCN3CCOCC3)cn2)ncn1`: inhibition was half-maximal at 31 nM (IC50).

`Cc1cccc(Cl)c1Nc1nc2ccccc2n1-c1cc(Cl)ncn1` gave a half-maximal inhibitory concentration (IC50) above 2500 nM.

`Cc1cccc(Cl)c1Nc1nc2ccccc2n1-c1cc(Nc2cc(CN3CCOCC3)ccn2)ncn1` returned an IC50 of 14 nM. This counts as double-digit nanomolar.

Consider `Cc1cccc(Cl)c1Nc1nc2ccccc2n1-c1cc(NN2CCOCC2)ncn1`, for which the IC50 is above 2500 nM.

With `CCN(CC)CCCCNc1cc(-n2c(Nc3c(C)cccc3Cl)nc3ccccc32)ncn1`, the IC50 amounted to 789 nM.

On to `Cc1cc(C)c(Nc2nc3ccccc3n2-c2cc(N)ncn2)c(Br)c1`, for which it took 1360 nM to reach half-maximal inhibition (IC50).

As to `Cc1cc(C)c(Nc2nc3ccccc3n2-c2cc(N)ncn2)c(C)c1`, the IC50 came out at 1780 nM. The IC50 values of the last two molecules are within 1.5-fold of each other.

As to `Cc1cccc(Cl)c1Nc1nc2ccccc2n1-c1ccncn1`, the midpoint of inhibition, the IC50, lay at 2090 nM.

In turn, `Cc1cccc(Cl)c1Nc1nc2ccccc2n1-c1cc(N2CCOCC2)ncn1` had a concentration for half-maximal inhibition (IC50) above 2500 nM.

`Cc1cccc(Cl)c1Nc1nc2ccccc2n1-c1cc(N)ncn1` yielded an IC50 of 514 nM.
